From PubChem BioAssay AID1996 come the findings set out here.

Each structure is given as a SMILES string. In brackets after ≈: the same amount, converted by molar mass.

The conditions of this data set: buffer; pH 7.4; 200.0 µM.
Broadly, the kinetic solubility is solubility judged after dilution from a stock solution rather than from solid. In turn, `COc1ccc(NS(=O)(=O)c2cc(C(=O)NNC(=O)c3ccncc3)ccc2OC)c(OC)c1` came in with a kinetic solubility above 73 µg/mL.
The result for `CCN(C(=O)CN1C(=O)CN(C)C1=O)c1cccc2ccccc12` reads above 48.8 µg/mL; that for `CCN(CC(=O)Nc1c(F)cccc1F)C(=O)Cc1c[nH]c2ccccc12`, above 55.7 µg/mL; that for `Br.COC(=O)CN1C2=NCCCN2c2ccccc21`, above 48.9 µg/mL.
For the compound `FC(F)(F)c1ccccc1-n1ccnc1`, the solubility (kinetic) is 30.2 µg/mL (≈ 142 µM).
Turning to `CC(=O)Oc1ccc(C(=O)Nc2cccnc2)cc1`, the solubility (kinetic) is above 38.4 µg/mL.
The result for `Cc1cccc(NC(=O)COC(=O)C2COc3ccccc3O2)c1C` (stereo unspecified) reads above 51.2 µg/mL; that for `OC(c1nnc(-c2ccccc2)o1)c1cccs1` (stereo unspecified), above 38.7 µg/mL; that for `O=C(/C=C/c1ccc(Cl)c(Cl)c1)N1CCOCC1`, 35.5 µg/mL (≈ 124 µM).
The result for `Cc1cc(NC(=O)NCC(F)(F)F)no1` reads above 33.5 µg/mL; that for `CC(C)(C)C(=O)N(Cc1ccc(Cl)cc1)Cc1cccnc1`, 42.6 µg/mL (≈ 134 µM).
The compound `CC(C)S(=O)(=O)c1csc(NC(=O)Nc2ccc(Cl)cc2)c1` displayed a solubility (kinetic) of 2.8 µg/mL (≈ 7.8 µM).
The result for `Cc1ccc(C#N)c(SCc2cccc(Br)c2)n1` reads below 0.3 µg/mL; that for `CSc1ccc(C(=S)N2CCCCCC2)cc1`, 12.9 µg/mL (≈ 48.6 µM).
The result for `O=C(NCCNc1ccc([N+](=O)[O-])cc1)c1ccccc1F` reads 3.8 µg/mL (≈ 12.5 µM); that for `CC(=O)Nc1ccc(S(=O)(=O)N(C)CC(=O)OCC(=O)c2ccc[nH]2)cc1`, above 59 µg/mL; that for `Cc1nc(CN(C)Cc2nc(Cc3ccccc3Cl)no2)cs1`, 44.3 µg/mL (≈ 127 µM).
The result for `CC(C)CN1C(=O)c2ccc(NC(=O)c3ccco3)cc2C1=O` reads 4.2 µg/mL (≈ 13.4 µM); that for `COc1ccc(C2(C)NC(=O)N(CC(=O)NC3(C#N)CCCCC3)C2=O)cc1` (stereo unspecified), above 57.7 µg/mL; that for `COc1cc2c(cc1OC)CC(C(=O)NCc1ccccc1)NC2` (stereo unspecified), 33.2 µg/mL (≈ 102 µM).
In turn, `CC(=O)Nc1ccccc1OCC(=O)NC1CCCCC1C` (stereo unspecified) registered a kinetic solubility above 45.7 µg/mL.
The result for `CC(OC(=O)CCc1nc2ccccc2[nH]c1=O)c1ccccc1` (stereo unspecified) reads 11.9 µg/mL (≈ 36.9 µM); that for `O=C(NCCO)/C(=C/c1ccco1)NC(=O)c1ccco1`, 43.3 µg/mL (≈ 149 µM); that for `CCOCCCNC(=O)c1cc2c(s1)-c1ccccc1SC2`, 27.6 µg/mL (≈ 82.8 µM).
`Cc1noc(C)c1C(=O)OCC(=O)NC1CCCCC1C` (stereo unspecified) displayed a solubility (kinetic) above 44.2 µg/mL.
The result for `CN(CC(=O)NCC1COc2ccccc2O1)S(=O)(=O)c1ccc(Cl)cc1` (stereo unspecified) reads 17.9 µg/mL (≈ 43.6 µM); that for `Cc1ccc(N2C(=O)C(F)(F)C2c2ccccc2)cc1` (stereo unspecified), 1 µg/mL (≈ 3.66 µM).
Turning to `CCCCNC(=S)N1CCN(c2nc3ccccc3s2)CC1`, the kinetic solubility is 0.9 µg/mL (≈ 2.69 µM).
The compound `CN(CCOC(=O)c1ccc2c(c1)OCO2)C(C)(C)C.Cl` gave a kinetic solubility of 41.7 µg/mL.
`CCc1ccccc1NC(=O)c1cc(C)no1` returned a solubility (kinetic) above 34.5 µg/mL.
The result for `Cc1ccc(C)c(SCC(=O)c2ccc[nH]2)c1` reads 29.9 µg/mL (≈ 122 µM); that for `COc1ccc(CNC(=O)c2c(C)cc(=O)oc2C)cc1`, above 43.1 µg/mL.
The result for `CCOc1ccc2[nH]c3c(NCCO)ncnc3c2c1` reads above 40.8 µg/mL; that for `O=C(COC(=O)CNC(=O)C1CCCCC1)Nc1ccccc1`, above 47.8 µg/mL.
On to `Cc1ccc(-c2nc(-c3cccnc3)sc2CC(=O)O)cc1`, for which the solubility (kinetic) was 42.4 µg/mL (≈ 137 µM).
The result for `O=C(NCc1ccco1)C1CC(O)CN1C(=O)Nc1ccccc1` (stereo unspecified) reads above 49.4 µg/mL; that for `COC(=O)c1ccc(C)c(NS(=O)(=O)c2cn(C)nc2C)c1`, above 48.5 µg/mL; that for `C=CCNC(=O)CN1CCC(c2nc3cc(C)c(C)cc3[nH]2)CC1`, above 49 µg/mL.
In turn, `Fc1ccc(CNC(=S)NC2CCCCCC2)cc1` showed a solubility (kinetic) of 28.3 µg/mL (≈ 101 µM).
For `CC(=O)c1sc2nc(CSc3nncn3C)[nH]c(=O)c2c1C`, the kinetic solubility was above 50.3 µg/mL.
With `CCOc1ccccc1CN1C(=O)NC2(CCCCCC2)C1=O`, the kinetic solubility is 46.6 µg/mL (≈ 147 µM).
